From article PMC5075789, “Orphan GPR110 (ADGRF1) targeted by N-docosahexaenoylethanolamine in development of neurons and cognitive function” (Nature Communications, 2016)
Blank lines part the entries; values can stand above or below the molecule they belong to.

How the values were obtained:
[1] = biological target: T1, mGPR110-HA (mouse GPR110) (Mus musculus, UniProt Q8VEC3); assay: in-cell cross-linking (DSS), streptavidin pull-down, western blot; assay type: cell-based; settings: 1 μM G1*, live HEK293 cells, 25 °C; cross-linked by 1 mM DSS
T1 construct: gene Adgrf1; full-length ORF, C-terminal HA tag kept, expressed in HEK293; about 100 kD main band
T1 sequence (Q8VEC3 21-564): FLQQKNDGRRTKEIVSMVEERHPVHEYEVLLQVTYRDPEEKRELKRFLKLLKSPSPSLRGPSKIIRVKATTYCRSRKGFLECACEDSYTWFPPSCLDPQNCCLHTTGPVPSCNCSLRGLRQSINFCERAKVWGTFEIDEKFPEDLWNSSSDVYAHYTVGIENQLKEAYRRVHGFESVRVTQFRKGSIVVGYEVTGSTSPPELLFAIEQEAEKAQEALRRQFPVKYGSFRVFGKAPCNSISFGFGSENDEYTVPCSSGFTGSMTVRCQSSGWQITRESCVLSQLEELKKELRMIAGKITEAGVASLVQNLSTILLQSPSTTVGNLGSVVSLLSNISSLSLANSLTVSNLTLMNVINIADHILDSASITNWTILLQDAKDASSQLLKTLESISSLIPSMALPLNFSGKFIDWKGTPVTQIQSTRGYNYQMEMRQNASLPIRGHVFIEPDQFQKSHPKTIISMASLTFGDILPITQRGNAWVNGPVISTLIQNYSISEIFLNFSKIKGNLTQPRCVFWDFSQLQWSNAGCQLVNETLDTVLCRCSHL
T1 sequence (Q8VEC3 565-908): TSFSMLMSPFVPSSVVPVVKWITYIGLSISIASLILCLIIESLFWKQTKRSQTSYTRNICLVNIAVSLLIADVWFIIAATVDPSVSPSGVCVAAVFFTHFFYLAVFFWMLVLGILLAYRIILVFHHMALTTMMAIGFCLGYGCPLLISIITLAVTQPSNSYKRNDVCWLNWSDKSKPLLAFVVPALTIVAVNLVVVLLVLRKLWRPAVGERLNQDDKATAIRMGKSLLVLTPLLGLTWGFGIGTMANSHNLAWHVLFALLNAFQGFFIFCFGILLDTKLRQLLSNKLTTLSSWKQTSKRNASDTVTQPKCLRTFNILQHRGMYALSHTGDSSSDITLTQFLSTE

[2] = biological target: T2, hGPR110-HA (human GPR110, ADGRF1) (Homo sapiens, UniProt Q5T601); assay: streptavidin pull-down and western blot; assay type: binding; settings: 1 μM G1, HEK293 lysate
T2 construct: full-length ORF, 910 residues, C-terminal HA tag kept, expressed in HEK293 (CRE-luc2P HEK293 for cAMP); immunopurified with anti-HA for MST; glycosylated, about 130 and 110 kD
T2 sequence (Q5T601 20-566): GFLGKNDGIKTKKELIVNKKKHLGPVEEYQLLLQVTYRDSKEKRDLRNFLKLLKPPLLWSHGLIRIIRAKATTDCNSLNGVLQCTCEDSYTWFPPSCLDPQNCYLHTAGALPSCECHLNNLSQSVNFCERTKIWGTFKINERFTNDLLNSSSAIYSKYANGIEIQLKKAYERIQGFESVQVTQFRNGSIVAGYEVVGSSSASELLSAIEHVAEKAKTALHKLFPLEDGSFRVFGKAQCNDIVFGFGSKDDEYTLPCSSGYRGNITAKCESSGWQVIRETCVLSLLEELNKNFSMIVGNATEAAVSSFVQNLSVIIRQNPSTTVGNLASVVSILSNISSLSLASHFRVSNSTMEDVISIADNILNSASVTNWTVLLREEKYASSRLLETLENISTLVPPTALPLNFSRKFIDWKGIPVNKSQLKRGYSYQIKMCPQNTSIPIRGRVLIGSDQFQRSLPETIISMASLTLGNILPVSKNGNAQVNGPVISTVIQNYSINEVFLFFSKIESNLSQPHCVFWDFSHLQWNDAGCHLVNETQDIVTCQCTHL
T2 sequence (Q5T601 567-910): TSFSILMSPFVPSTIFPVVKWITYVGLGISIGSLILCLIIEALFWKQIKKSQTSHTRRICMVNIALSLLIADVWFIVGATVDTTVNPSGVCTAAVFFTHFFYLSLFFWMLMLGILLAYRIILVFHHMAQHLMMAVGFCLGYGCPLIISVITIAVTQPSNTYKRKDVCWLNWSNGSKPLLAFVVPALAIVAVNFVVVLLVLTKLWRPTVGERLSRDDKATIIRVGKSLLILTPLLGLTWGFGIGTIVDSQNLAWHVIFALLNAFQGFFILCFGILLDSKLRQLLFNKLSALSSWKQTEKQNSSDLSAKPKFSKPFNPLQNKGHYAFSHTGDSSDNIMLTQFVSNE

[3] = biological target: T1, mGPR110-HA (mouse GPR110); assay: streptavidin pull-down and western blot; assay type: binding; settings: 1 μM G1, HEK293 lysate, PBS with 0.5% Triton X-100
[4] = biological target: T2, hGPR110-HA (human GPR110, ADGRF1); assay: microscale thermophoresis; settings: read-out: apparent Kd
Excerpt: microscale thermophoresis on hGPR110-HA (human GPR110, ADGRF1) | immunopurified hGPR110 and bodipy-synaptamide, a fluorescent synaptamide analogue, indicated apparent Kd

SMILES: CC/C=C\C/C=C\C/C=C\C/C=C\C/C=C\C/C=C\CCC(=O)NCCCC(CCCN)NC(=O)CCCC[C@@H]1SC[C@@H]2NC(=O)N[C@@H]21 (stereo partly drawn) [G1*, (4Z,7Z,10Z,13Z,16Z,19Z)-N-(7-amino-4-(5-((3aS,4S,6aR)-2-oxohexahydro-1H-thieno(3,4-d)imidazol-4-yl)pentanamido)heptyl)docosa-4,7,10,13,16,19-hexaenamide]
in-cell cross-linking (DSS), streptavidin pull-down, western blot [1]: confirming G1* binding to GPR110-HA in live HEK cells

SMILES: CC/C=C\C/C=C\C/C=C\C/C=C\C/C=C\C/C=C\CCC(=O)NCCNC(=O)CCCC[C@@H]1SC[C@@H]2NC(=O)N[C@@H]21 [G1, (4Z,7Z,10Z,13Z,16Z,19Z)-N-(2-(5-((3aS,4S,6aR)-2-oxohexahydro-1H-thieno(3,4-d)imidazol-4-yl)pentanamido)ethyl)docosa-4,7,10,13,16,19-hexaenamide]
streptavidin pull-down and western blot [2]: hGPR110 showed G1 binding which was displaced by synaptamide
streptavidin pull-down and western blot [3]: confirming binding of G1 to the expressed mGPR110-HA

Kd [4]: ~20 nM
SMILES: CC/C=C\C/C=C\C/C=C\C/C=C\C/C=C\C/C=C\CCC(=O)NCCNC(=O)CCCCC1=C2C(C)=CC(C)=[N+]2[B-](F)(F)n2c(C)cc(C)c21 [bodipy-synaptamide, 10-(5-((2-((4Z,7Z,10Z,13Z,16Z,19Z)-docosa-4,7,10,13,16,19-hexaenamido)ethyl)amino)-5-oxopentyl)-5,5-difluoro-1,3,7,9-tetramethyl-5H-dipyrrolo(1,2-c:2',1'-f)(1,3,2)diazaborinin-4-ium-5-uide]
